According to ChEMBL document CHEMBL1201862, “PubChem BioAssay data set” (2004):
Activity calls are given as the source filed them.

Experiments:
[1] = target: DNA dC->dU-editing enzyme APOBEC-3A (Homo sapiens, UniProt P31941); assay: APOBEC3A DNA deaminase inhibitors, dose response, biochemical (AID 504722); format: functional
[2] = target: DNA dC->dU-editing enzyme APOBEC-3G (Homo sapiens, UniProt Q9HC16); assay: Dose Response confirmation of small molecule APOBEC3G DNA Deaminase Inhibitors via a fluorescence-based single-stranded DNA deaminase assay. [Related pubchem assays (depositor defined):AID493012, AID493028]; format: functional
DNA dC->dU-editing enzyme APOBEC-3G, sequence (Q9HC16 whole entry): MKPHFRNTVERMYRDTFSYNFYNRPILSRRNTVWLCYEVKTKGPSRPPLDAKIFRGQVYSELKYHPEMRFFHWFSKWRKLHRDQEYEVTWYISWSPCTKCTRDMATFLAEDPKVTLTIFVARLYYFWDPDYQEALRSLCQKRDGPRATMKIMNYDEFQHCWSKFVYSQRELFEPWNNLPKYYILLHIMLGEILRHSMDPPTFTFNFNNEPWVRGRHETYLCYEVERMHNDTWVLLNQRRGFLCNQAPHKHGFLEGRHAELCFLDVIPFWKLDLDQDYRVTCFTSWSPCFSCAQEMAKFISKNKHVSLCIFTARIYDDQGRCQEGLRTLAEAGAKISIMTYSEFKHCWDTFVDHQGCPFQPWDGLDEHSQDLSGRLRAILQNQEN

[3] = target: T1, Apoptotic protease-activating factor 1 (Homo sapiens, UniProt O14727); assay: activation of Apaf-1 mediated apoptosis – fluorescent, uHTS hits, dose response (AID 588554); format: functional
T1 sequence (O14727 whole entry): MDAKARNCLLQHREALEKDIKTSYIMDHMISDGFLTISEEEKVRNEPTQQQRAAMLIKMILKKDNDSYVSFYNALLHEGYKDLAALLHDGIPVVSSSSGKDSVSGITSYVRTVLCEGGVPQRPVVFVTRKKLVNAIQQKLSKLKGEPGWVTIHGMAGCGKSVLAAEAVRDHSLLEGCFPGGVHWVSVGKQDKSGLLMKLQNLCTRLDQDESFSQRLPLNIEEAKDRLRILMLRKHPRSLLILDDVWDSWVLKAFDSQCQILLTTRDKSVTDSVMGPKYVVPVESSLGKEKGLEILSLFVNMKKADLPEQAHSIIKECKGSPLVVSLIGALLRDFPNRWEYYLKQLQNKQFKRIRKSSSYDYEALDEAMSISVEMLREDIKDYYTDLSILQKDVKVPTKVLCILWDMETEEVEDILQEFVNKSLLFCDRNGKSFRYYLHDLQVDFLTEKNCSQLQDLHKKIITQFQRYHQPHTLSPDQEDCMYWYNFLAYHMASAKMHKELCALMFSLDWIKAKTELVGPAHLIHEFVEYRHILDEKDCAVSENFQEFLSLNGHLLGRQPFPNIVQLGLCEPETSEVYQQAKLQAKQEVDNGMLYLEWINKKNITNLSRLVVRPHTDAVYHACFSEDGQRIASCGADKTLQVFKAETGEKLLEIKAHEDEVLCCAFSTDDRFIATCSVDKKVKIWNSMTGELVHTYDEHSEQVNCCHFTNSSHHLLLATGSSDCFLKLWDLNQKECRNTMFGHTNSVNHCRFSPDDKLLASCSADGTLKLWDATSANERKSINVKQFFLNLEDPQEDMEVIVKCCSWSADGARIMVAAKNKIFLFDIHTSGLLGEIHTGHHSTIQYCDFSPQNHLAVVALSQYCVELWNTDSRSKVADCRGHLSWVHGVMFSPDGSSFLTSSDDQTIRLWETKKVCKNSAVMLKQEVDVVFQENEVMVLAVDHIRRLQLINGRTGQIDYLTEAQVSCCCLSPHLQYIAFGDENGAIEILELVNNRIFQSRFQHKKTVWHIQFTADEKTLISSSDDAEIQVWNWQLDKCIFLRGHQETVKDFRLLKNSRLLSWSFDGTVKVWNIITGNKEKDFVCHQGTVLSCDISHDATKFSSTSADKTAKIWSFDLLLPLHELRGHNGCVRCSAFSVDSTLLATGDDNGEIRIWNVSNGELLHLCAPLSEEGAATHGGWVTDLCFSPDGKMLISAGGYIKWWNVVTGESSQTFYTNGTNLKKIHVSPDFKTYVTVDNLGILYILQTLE

[4] = target: T2, Carboxy-terminal domain RNA polymerase II polypeptide A small phosphatase 1 (Homo sapiens, UniProt Q9GZU7); assay: inhibitors of CTDSP1, concentration-response testing, biochemical assay, absorbance-based, actives from ultra-high-throughput screening (AID 540297); format: functional
T2 sequence (Q9GZU7 whole entry): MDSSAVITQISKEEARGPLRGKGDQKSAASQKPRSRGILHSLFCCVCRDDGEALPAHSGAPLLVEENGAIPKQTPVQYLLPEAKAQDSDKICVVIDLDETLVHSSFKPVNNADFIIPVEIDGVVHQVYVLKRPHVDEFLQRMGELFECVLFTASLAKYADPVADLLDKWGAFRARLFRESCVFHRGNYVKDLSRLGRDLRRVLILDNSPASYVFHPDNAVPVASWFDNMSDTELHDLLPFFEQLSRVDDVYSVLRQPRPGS

[5] = target: DNA (cytosine-5)-methyltransferase 1 (Homo sapiens, UniProt P26358); assay: DNMT1 methyltransferase inhibitors, confirmation, biochemical, fluorescent molecular beacon (AID 602386); format: functional
DNA (cytosine-5)-methyltransferase 1, sequence (P26358 whole entry): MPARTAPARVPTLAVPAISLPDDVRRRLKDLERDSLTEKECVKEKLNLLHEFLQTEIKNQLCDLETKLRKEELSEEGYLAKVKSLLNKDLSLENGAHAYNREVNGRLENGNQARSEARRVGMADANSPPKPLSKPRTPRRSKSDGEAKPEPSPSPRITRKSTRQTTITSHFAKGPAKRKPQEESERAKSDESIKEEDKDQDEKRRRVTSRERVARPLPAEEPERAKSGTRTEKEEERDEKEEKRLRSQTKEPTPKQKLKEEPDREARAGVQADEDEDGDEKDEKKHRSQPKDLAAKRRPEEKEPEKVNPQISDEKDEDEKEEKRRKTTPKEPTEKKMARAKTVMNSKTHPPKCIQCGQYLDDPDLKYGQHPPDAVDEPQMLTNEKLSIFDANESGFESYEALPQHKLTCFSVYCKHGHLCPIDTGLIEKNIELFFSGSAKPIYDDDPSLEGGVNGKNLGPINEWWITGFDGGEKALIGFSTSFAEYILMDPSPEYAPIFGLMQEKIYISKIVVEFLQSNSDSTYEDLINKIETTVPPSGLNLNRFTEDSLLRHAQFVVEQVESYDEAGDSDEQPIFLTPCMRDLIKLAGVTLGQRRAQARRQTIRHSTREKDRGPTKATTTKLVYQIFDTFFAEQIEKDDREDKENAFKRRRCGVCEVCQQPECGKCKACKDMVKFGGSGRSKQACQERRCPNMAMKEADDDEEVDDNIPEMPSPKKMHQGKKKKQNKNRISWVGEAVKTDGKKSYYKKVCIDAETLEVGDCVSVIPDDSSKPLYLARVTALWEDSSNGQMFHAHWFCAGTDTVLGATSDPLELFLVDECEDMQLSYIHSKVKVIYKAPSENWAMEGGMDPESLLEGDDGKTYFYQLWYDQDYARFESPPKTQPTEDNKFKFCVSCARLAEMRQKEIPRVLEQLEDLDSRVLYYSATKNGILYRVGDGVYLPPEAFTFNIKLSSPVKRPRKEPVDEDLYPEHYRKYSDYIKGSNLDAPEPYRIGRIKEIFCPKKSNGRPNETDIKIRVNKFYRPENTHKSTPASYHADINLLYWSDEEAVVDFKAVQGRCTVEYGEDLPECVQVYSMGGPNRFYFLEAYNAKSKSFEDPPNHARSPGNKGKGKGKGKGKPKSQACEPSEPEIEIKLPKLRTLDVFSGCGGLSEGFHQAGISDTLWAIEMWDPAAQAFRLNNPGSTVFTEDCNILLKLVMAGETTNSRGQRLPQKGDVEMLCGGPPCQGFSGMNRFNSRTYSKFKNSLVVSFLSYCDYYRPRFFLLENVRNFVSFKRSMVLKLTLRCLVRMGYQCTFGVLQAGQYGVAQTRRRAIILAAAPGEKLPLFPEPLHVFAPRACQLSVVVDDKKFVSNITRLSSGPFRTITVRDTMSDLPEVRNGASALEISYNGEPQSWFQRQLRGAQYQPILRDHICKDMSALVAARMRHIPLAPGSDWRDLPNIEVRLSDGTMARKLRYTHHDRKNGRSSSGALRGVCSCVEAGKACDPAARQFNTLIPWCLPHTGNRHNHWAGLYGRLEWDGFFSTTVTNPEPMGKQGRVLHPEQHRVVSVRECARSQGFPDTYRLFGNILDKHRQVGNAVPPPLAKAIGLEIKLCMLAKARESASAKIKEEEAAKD

[6] = target: T3, Small ubiquitin-related modifier 1 (Homo sapiens, UniProt P63165); assay: inhibitors of SUMO1 peptide binding, dose response, biochemical, fluorescence polarization, uHTS hits (AID 624382); format: functional; details: read-out: IC50_Mean
T3 sequence (P63165 whole entry): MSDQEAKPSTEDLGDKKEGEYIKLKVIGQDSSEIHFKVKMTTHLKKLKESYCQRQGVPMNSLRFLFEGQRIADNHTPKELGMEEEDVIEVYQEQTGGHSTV

[7] = target: T3, Small ubiquitin-related modifier 1; assay: inhibitors of SUMO1 partner interactions, dose response, biochemical, FRET (AID 624383); format: functional; details: read-out: IC50_Mean
[8] = Luminescence Cell-Based Dose Confirmation HTS to Identify Activators of 5'UTR Stem-Loop Driven Alpha-Synuclein mRNA Translation in H4 Neuroglioblastoma Cells. [Related pubchem assays: 1829 (Project Summary), 1814 (Primary HTS)]; format: functional
[9] = Luminescence Cell-Based Dose Response HTS to Identify Activators of Luciferase Translation or Activity in H4 […] Cells. [Related pubchem assays: 1829 (Project Summary), 1814 (Primary HTS)]; format: functional
cells [10] = format: functional, cell-based
H4 = assay: Luminescence Cell-Based Dose Response HTS to Identify Activators of 5'UTR Stem-Loop Driven Prion Protein mRNA Translation in H4 Neuroglioblastoma Cells. [Related pubchem assays: 1829 (Project Summary), 1814 (Primary HTS)]; format: functional; details: Homo sapiens
cells [11] = format: functional, cell-based; remark: listed apart in the source
[12] = Luminescence Cell-Based Dose Retest to Confirm Inhibitors of Cancer Stem Cells. [Related pubchem assays (depositor defined):AID2717, AID2721]; format: functional; details: Homo sapiens
[13] = cytotoxicity in HMLE control line with eGFP shRNA, dose response, counter-screen for HMLE_sh_ECad selective toxicity project, cell-based, HMLE_sh_eGFP, luminescence (AID 463074); format: functional, Homo sapiens;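 note: HMLE human mammary epithelial cells expressing control shRNA against eGFP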
Beta-galactosidase = Beta-galactosidase (Escherichia coli, UniProt Q8VNN2); assay: PubChem AID 485352; format: functional
Beta-galactosidase, sequence (Q8VNN2 whole entry): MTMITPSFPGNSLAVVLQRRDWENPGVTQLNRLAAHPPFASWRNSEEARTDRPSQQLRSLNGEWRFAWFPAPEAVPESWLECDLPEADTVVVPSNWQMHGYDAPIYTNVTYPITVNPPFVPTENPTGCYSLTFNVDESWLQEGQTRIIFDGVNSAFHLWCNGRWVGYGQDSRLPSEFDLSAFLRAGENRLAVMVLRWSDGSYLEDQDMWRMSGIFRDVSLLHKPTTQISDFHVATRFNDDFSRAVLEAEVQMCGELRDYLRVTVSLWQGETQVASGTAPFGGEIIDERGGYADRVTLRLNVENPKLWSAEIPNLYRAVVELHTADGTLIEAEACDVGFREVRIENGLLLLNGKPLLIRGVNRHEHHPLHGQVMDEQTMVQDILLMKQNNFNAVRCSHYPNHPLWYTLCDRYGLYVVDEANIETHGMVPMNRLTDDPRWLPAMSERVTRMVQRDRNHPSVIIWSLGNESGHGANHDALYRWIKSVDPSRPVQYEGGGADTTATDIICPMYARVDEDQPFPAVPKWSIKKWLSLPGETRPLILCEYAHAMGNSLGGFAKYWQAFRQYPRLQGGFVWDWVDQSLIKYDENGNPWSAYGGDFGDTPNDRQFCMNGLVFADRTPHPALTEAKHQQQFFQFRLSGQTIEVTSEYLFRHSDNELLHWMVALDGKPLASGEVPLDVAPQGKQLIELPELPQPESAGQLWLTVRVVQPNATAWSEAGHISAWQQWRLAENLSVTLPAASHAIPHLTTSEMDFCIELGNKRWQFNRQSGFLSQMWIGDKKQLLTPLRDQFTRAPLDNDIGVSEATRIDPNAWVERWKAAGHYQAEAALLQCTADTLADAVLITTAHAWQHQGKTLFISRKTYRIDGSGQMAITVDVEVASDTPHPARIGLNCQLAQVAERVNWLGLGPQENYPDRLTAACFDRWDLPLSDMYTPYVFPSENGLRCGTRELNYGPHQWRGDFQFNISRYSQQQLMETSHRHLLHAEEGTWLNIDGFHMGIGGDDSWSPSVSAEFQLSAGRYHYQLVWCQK

[14] = target: Type-1 angiotensin II receptor (Homo sapiens, UniProt P30556); assay: AT1 receptor antagonists, dose response, selectivity assay for APJ receptor antagonist project, cell-based, uHTS hits (AID 463214); format: functional;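 note: antagonist potency against angiotensin II stimulated AT1 response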
Type-1 angiotensin II receptor, sequence (P30556 whole entry): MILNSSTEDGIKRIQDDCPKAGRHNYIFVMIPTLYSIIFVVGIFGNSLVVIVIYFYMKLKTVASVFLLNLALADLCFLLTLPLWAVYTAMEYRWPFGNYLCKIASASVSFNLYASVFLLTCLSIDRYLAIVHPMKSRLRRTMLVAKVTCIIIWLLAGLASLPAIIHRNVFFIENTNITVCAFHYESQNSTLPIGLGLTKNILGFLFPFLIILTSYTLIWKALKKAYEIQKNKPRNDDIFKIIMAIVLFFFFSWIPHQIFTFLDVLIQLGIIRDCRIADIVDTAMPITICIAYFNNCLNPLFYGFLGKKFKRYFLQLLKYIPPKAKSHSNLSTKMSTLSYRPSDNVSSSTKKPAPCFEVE

DNA dC->dU-editing enzyme APOBEC-3A, sequence (P31941 whole entry): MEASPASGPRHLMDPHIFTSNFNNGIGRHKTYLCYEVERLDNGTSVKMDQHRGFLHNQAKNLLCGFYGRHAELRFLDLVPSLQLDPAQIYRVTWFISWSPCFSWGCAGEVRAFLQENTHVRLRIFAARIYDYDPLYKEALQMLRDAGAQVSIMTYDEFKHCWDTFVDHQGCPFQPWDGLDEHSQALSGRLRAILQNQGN

For C=C(C)C(=O)Nc1cccc(C2=NOC3(C2)C[C@@H](C(N)=O)N(C(=O)/C=C/CC)C3)c1 (stereo partly specified), the IC50 [1] was > 100 µM (inactive), the IC50 [2] was 6.06 µM (active) and the EC50 [3] was 4.43 µM (active). For the same compound, the IC50 [4] was 1.73 µM (active), the IC50 [5] was 5.96 µM (active) and the IC50 [6] was > 66.6 µM (inactive). The IC50 [7] was 3.25 µM (active).
With CC(C)c1ccc(NC(=O)CCc2ccccc2)cc1 the EC50 [8] was 7.33 µM (active), the EC50 [9] was 52.1 µM (active) and the EC50 (cells [10]) was > 350 µM (not active). For the same compound, the EC50 (H4) was > 120 µM (inconclusive), the EC50 (cells [11]) was > 350 µM (not active) and the AC50 [12] was 6.63 µM (active). The AC50 [13] was 40.5 µM (active).
In the case of O=C(CCC(=O)OCC(=O)c1ccc(Cl)cc1Cl)Nc1cccc2cccnc12, the EC50 (Beta-galactosidase) is reported as > 40 µM (inactive) and the IC50 [14] is reported as > 40 µM (not active).
